Series [1] has as its system P-388 leukemia cells. Put plainly: Antitumor activity: P-388 leukemia cells inoculated intraperitoneally, drug administered intravenously, BDF1 mice. Type of series: in vivo. Conditions: Mus musculus, P388, iv, read-out: T/C (%) of MST; for response vs control in vivo at 50 mg/kg: dose d: 50 mg/kg × 3, i.v. on days 1, 5 and 9; for response vs control in vivo at 60 mg/kg: dose e: 60 mg/kg × 3, i.v. on days 1, 5 and 9. The procedure, abridged:
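Drug dosing was intravenous on the first, fifth and ninth days after intraperitoneal inoculation of P-388 leukemia cells (1×10^6 per mouse) into BDF1 mice. Vehicles were physiological saline alone, or saline with small amounts of sodium carboxymethyl cellulose or Tween-80.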

The nature of series [2]: Acute toxicity, intravenous (once), ddY mice. Type of series: in vivo. The following applies: mouse, in vivo, formulated per Preparation Example. An excerpt: In Table 7 are shown acute toxicity values (LD50, mg/kg) in ddY mice in the case of intravenously administering (once) each of the compounds of this invention in the form of preparations shown in the Preparation Examples shown in Table 7.

Setting [3] is: dose c: 40 mg/kg × 3, i.v. on days 1, 5 and 9, BDF1 mice, P-388 i.p.
The mark [4] stands for this setting: dose f: 80 mg/kg × 3, i.v. on days 1, 5 and 9, BDF1 mice, P-388 i.p.

Read-outs that look alike come from different tables or passages of the source.

For `CO[C@H]1[C@@H](O)[C@@H](C)O[C@H](O[C@H]2[C@H](Oc3cccc4c(OC(=O)CCCCl)c5c(=O)oc6ccc(C)c7c(=O)oc(c34)c5c67)O[C@H](C)[C@@H]3OC(c4ccccc4)O[C@@H]32)[C@@H]1O` (stereo partly shown) [compound 214], the response vs control in vivo at 40 mg/kg in series [1] (setting [3]) was 130%. Further, the response vs control in vivo at 80 mg/kg in series [1] (setting [4]) amounted to 198%. This compound gave an LD50 in series [2] (iv) of at least 80 mg/kg.
Consider `C/C=C(\C)C(=O)Oc1c2cccc(O[C@@H]3O[C@H](C)[C@@H]4OC(c5ccccc5)O[C@@H]4[C@H]3O[C@H]3O[C@H](C)[C@H](O)[C@H](OC)[C@H]3O)c2c2oc(=O)c3c(C)ccc4oc(=O)c1c2c43` (stereo partly shown) [compound 215], for which, in series [1], the response vs control in vivo at 40 mg/kg came out at 131% and the response vs control in vivo at 80 mg/kg worked out at 158%. Moreover, in series [2], the 50% lethal dose (LD50) is at least 80 mg/kg.
As for `CCCC(=O)Oc1c2cccc(O[C@@H]3O[C@H](C)[C@@H]4OC(c5ccccc5OC)O[C@@H]4[C@H]3O[C@H]3O[C@H](C)[C@H](O)[C@H](OC)[C@H]3O)c2c2oc(=O)c3c(C)ccc4oc(=O)c1c2c43` (stereo partly shown) [compound 216], the response vs control in vivo at 40 mg/kg in series [1] is 171%. The compound also showed an LD50 in series [2] of at least 40 mg/kg.
For `C=CCCC(=O)Oc1c2cccc(O[C@@H]3O[C@H](C)[C@@H]4OC(c5ccc(Cl)cc5Cl)O[C@@H]4[C@H]3O[C@H]3O[C@H](C)[C@H](O)[C@H](OC)[C@H]3O)c2c2oc(=O)c3c(C)ccc4oc(=O)c1c2c43` (stereo partly shown) [compound 217], the response vs control in vivo at 80 mg/kg in series [1] amounted to 181%. For the same compound, the LD50 in series [2] is at least 80 mg/kg.
For `COc1cccc(C(=O)Oc2c3cccc(O[C@@H]4O[C@H](C)[C@@H]5OC(CCc6ccccc6)O[C@@H]5[C@H]4O[C@H]4O[C@H](C)[C@H](O)[C@H](OC)[C@H]4O)c3c3oc(=O)c4c(C)ccc5oc(=O)c2c3c54)c1` (stereo partly shown) [compound 218], the response vs control in vivo at 80 mg/kg in series [1] (setting [4]) turned out to be 176%. Moreover, the LD50 in series [2] (iv) is at least 80 mg/kg.
In the case of `CCC1O[C@H]2[C@@H](O1)[C@@H](C)O[C@@H](Oc1cccc3c(OC(=O)C(C)CC)c4c(=O)oc5ccc(C)c6c(=O)oc(c13)c4c56)[C@@H]2O[C@H]1O[C@H](C)[C@H](O)[C@H](OC)[C@H]1O` (stereo partly shown) [compound 219], in series [1], the response vs control in vivo at 40 mg/kg came out at 130% and the response vs control in vivo at 80 mg/kg came to 182%. In series [2], this compound yielded a median lethal dose (LD50) of at least 80 mg/kg.
For the compound `CCCCCCCCCC(=O)Oc1c2cccc(OC3OC(C)C4OC(C)(C)OC4C3OC3OC(C)C(O)C(OC)C3O)c2c2oc(=O)c3c(C)ccc4oc(=O)c1c2c43` (stereo not shown) [compound 220], in series [1] (BDF1 mice, P-388 i.p.), the response vs control in vivo at 50 mg/kg was 157%. In series [2] (iv), this compound came in with an LD50 of at least 60 mg/kg.
Consider `C/C=C/C(=O)Oc1c2cccc(OC3OC(C)C4OC5(CCCCC5)OC4C3OC3OC(C)C(O)C(OC)C3O)c2c2oc(=O)c3c(C)ccc4oc(=O)c1c2c43` (stereo not shown) [compound 221], for which, in series [1], the response vs control in vivo at 80 mg/kg came out at 168%. The median lethal dose (LD50) in series [2] is at least 80 mg/kg.
Turning to `COC1C(O)C(C)OC(OC2C(Oc3cccc4c(OC(=O)C(C)C)c5c(=O)oc6ccc(C)c7c(=O)oc(c34)c5c67)OC(C)C3OC(C)(C)OC32)C1O` (stereo not shown) [compound 222], the response vs control in vivo at 40 mg/kg in series [1] (setting [3]) was found to be 144%. In addition, the response vs control in vivo at 80 mg/kg in series [1] (setting [4]) was found to be 162%. Besides, the LD50 in series [2] (iv) was at least 80 mg/kg.
Regarding `COC1C(O)C(C)OC(OC2C(Oc3cccc4c(OC(=O)CCC(=O)c5ccccc5)c5c(=O)oc6ccc(C)c7c(=O)oc(c34)c5c67)OC(C)C3OC(C)(C)OC32)C1O` (stereo not shown) [compound 224, 6-O-(3-benzoylpropionyl)-3',4'-O-isopropylidene-chartreusin], in series [1] (BDF1 mice, P-388 i.p.), the response vs control in vivo at 50 mg/kg worked out at 148%. The 50% lethal dose (LD50) in series [2] (iv) is at least 60 mg/kg.
On to `COC1C(O)C(C)OC(OC2C(Oc3cccc4c(OC(=O)COc5ccc(F)cc5)c5c(=O)oc6ccc(C)c7c(=O)oc(c34)c5c67)OC(C)C3OC(C)(C)OC32)C1O` (stereo not shown) [compound 225], for which the response vs control in vivo at 60 mg/kg in series [1] (BDF1 mice, P-388 i.p.) was determined as 148%. The compound further gave an LD50 in series [2] (iv) of at least 60 mg/kg.
As to `CCCC(=O)Oc1c2cccc(OC3OC(C)C4OC(c5ccco5)OC4C3OC3OC(C)C(O)C(OC)C3O)c2c2oc(=O)c3c(C)ccc4oc(=O)c1c2c43` (stereo not shown) [compound 228], the response vs control in vivo at 60 mg/kg in series [1] (BDF1 mice, P-388 i.p.) was found to be 140%. In series [2] (iv), the median lethal dose (LD50) is at least 60 mg/kg.

The record behind these values is patent publication US4760136A, “Chartreusin derivatives and salts thereof” (Ishihara Sangyo Kaisha, Ltd., priority 1984, dated 1988).
